# Assay results from patent publication US20020183357A1, “Use of alpha- 1- alpha adrenoceptor agonists with alpha-1-Beta antagonism for the treatment of stress urinary incontinence” (priority 2000, published 2002).
# Read-outs that look alike come from different tables or passages of the source.
# Key:
# [1] = target: T1, α1D adrenoceptor subtype (rat aorta) (Rattus norvegicus, UniProt P23944); test: Rat aorta tissue bath, agonism; details: for α1D efficacy: percent of phenylephrine (100%) contraction
# T1 sequence (P23944 1-561): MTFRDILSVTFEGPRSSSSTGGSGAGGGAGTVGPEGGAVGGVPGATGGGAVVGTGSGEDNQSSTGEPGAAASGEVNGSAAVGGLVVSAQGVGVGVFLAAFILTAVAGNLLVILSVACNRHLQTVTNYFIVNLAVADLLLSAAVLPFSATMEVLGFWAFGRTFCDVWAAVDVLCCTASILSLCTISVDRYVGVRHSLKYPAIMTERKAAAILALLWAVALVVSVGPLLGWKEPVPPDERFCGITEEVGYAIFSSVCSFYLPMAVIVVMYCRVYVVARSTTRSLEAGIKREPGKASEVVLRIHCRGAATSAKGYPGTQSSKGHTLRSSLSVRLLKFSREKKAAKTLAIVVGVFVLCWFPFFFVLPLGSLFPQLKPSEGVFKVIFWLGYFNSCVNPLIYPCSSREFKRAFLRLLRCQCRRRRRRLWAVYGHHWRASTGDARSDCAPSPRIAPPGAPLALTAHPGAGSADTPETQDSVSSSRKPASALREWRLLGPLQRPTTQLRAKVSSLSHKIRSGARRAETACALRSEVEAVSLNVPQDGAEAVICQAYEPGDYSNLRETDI
# Description: (§1) Quantitative analysis of agonist and antagonist action is the basis of receptor classification and drug design. […] The interaction of an agonist with a receptor may be characterized by two quantities, affinity and efficacy. These quantities can be estimated by generating two concentration response curves and fitting the data to a four parameter curve smoothing routine. The first curve is a reference standard followed by a thorough rinsing and a second curve generated using the test agent. […] Agonist potency (pD2) is expressed as the negative log10 of the EC50. The efficacy is determined by comparing the maximum value of the test agent to the maximum value of the reference agent and expressed as a % of maximum response.
# (§2) A cumulative concentration protocol was employed. […] Br. J. Pharmacol. 14, 48-58.
# [2] = for IUP ED5 mmHg: dose producing 5 mmHg increase in IUP; for Selectivity ratio MAP ED20/IUP ED5: calculated for each dog and then averaged
# Description: Intraurethral Pressure in Dogs (IUP-MAP test)
# Female Beagle dogs (Marshall Farms, North Rose, N.Y.) greater that 2 years of age and weighing between 12 and 15 kg were used in these studies. At least 2 weeks prior to any agonist dosing, dogs were instrumented for the chronic measurement of arterial blood pressure by implanting a telemetry transducer/transmitter (TA11PA-C40, Data Sciences International, St. Paul, Minn.) into a carotid artery.
# On the test day, dogs fasted since the previous afternoon were pre-anesthetized with thiopental sodium 15 mg/kg i.v. (Pentothal™, Abbott) and intubated. Anesthesia was maintained by allowing the dog to spontaneously breathe a mixture of isoflurane (2.5 to 3 volume %) and oxygen delivered by a Narkomed Standard anesthesia system (North American Drager, Telford, Pa.). An Abbocath-T™ i.v. catheter (18-G, Abbott Laboratories, Abbott Park, Ill.) was inserted into the cephalic vein for the administration of agonists. A telemetry receiver (RA1310, DataSciences) was placed under the head of each dog and was interfaced to a computerized data acquisition system (Modular Instruments Inc.(MI2), Malvern, Pa.) which allowed for the continuous calibrated recording of arterial blood pressure which was electronically filtered to determine its mean value (MAP).
# Briefly, a 7 Fr catheter balloon catheter (41224-01, Abbott) was inserted into the urethral orifice and advanced approximately 15 cm until the tip was well inside the bladder. The balloon was then inflated with 1 ml of room air and the catheter slowly withdrawn until resistance (corresponding to the bladder neck) was evident. The balloon was then deflated and the catheter withdrawn an additional 2 cm. The balloon was then reinflated and its catheter port connected to a Gould Statham P23Dd pressure transducer interfaced to a computerized data acquisition system (Modular Instruments, Inc., Malvern, Pa.) for the measurement of intraurethral pressure (IUP). The MAP and IUP pressor responses to increasing iv doses of test agonists were obtained simultaneously. The pressor effects of each dose were allowed to return to baseline before the next dose was given.
# The dose required to elicit significant and clinically meaningful changes in IUP (5 mm Hg) relative to the dose required to elicit a physiologically significant increase in blood pressure (20 mm Hg) is calculated.
# IUP and MAP pressor effects of each agonist dose were expressed as the maximum net change in each pressure over pre-dose baseline levels. Subsequently, the effective doses required to produce a 5 mmHg increase in IUP (IUP ED5mmHg) and a 20 mmHg increase in MAP (MAP ED20mmHg) were estimated from the dose response data from each dog. Relative urethral versus vascular selectivity of each agonist in each dog was estimated using a ratio of these respective potency indices (MAP ED20mmHg/IUP ED5mmHg).
# Data are expressed as means (±S.E.M) and all doses are in nmol/kg, i.v.
# [3] = target: T2, α1A adrenoceptor subtype (rabbit urethra) (Oryctolagus cuniculus, UniProt O02824); test: Rabbit urethra tissue bath, agonism; details: for α1A efficacy: percent of phenylephrine (100%) contraction
# T2 sequence (O02824 1-466): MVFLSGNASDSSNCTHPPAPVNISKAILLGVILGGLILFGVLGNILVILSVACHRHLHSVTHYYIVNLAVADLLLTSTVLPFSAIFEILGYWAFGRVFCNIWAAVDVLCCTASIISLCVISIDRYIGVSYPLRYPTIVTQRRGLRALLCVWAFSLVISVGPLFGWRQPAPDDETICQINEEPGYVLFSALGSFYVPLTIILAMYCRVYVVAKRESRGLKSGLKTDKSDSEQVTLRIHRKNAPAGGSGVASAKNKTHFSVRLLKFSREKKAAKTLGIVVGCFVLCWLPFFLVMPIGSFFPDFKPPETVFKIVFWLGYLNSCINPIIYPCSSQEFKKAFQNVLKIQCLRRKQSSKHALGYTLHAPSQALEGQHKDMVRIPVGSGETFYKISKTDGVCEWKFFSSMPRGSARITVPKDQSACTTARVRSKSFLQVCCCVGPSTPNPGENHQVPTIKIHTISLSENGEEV
# Description: as §1, §2
# The efficacy of the compounds are compared as a percent of phenylephrine (100%) contraction.
# [4] = target: T3, α1B adrenoceptor subtype (rat spleen) (Rattus norvegicus, UniProt P15823); details: for type of antagonism at α1B: based on slope and regression (r) of Schild plot; for α1B r (regression of Schild plot) / α1B slope (Schild plot): rat spleen
# T3 sequence (P15823 1-515): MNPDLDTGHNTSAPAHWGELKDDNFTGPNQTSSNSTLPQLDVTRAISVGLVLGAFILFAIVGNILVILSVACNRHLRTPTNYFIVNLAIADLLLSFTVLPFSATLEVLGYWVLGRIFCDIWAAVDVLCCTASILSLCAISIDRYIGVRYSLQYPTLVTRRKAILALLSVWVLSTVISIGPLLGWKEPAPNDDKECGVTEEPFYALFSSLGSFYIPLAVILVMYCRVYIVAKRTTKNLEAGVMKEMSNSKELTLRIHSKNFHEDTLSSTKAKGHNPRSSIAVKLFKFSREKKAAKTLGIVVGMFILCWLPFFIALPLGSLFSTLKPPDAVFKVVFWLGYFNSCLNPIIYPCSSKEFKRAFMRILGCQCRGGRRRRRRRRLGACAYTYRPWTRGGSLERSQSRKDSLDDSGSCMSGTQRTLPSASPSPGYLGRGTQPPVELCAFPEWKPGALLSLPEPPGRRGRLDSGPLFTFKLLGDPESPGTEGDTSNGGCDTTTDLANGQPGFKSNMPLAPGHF
# Description: as §2
# (§3) The spleen was split longitudinally into two preparations per rat.
# [5] = target: T1, α1D adrenoceptor subtype (rat aorta)
# Description: (§4) The interaction of an antagonist with a receptor can be characterized by an affinity constant, pA2. The affinity unit, pA2, can be defined as negative logarithm to base 10 of the molar concentration of antagonist drug that will reduce the effect of the reference agonist by 50%. […] The fractional increase in agonist concentration required to overcome the effects of the antagonist should be independent of the agonist concentration. Secondly, the affinity of the antagonist should be independent of concentration, therefore the Schild plot should have a slope of unity. Thirdly, the antagonist affinity should be independent of the agonist used.
# (§5) The urethra was removed with the urinary bladder and immediately placed into Krebs Ringer bicarbonate solution with the following mM concentrations: 120 NaCl, 18.0 NaHCO3, 11.0 dextrose, 4.7 KCl, 2.5 CaCl2, 1.5 MgSO4, 1.2 KH2PO4 and equilibrated with 5% CO2:95% O2. The pH was adjusted to 7.2 at 25° C. by titrating with a saturated solution of NaHCO3. The pH increased to 7.4 at 37° C. Propranolol (0.004 mM) was included in all of the assays to block β-adrenoceptors. […] One end was fixed to a stationary glass rod and the other to a Grass FT03 transducer at a basal preload of 1.0 g of tension. Data was recorded on a Grass model-7 polygraph. Tissues were rinsed every 10 minutes for a total of 45-60 minutes. The urethra was primed once with 80 mM KCl, rinsed to basal tension and again with 10 μM phenylephrine (PE). After an additional 60 minute equilibration period a reference concentration response curve was generated for each tissue using PE as the reference agonist. A cumulative concentration protocol was employed. Following a 75 minute washout period a second response curve was then generated in the same fashion using the test agent. The amount of agent necessary to cause a 50% response (ED50) was calculated using “AGANTG” (Zielinski, P. J., Buckner, S. A. (1998). AGANTG: A Microsoft Excel 5.0-visual basic routine for the analysis of dose-response data. Analyst. 123, 1661-1668), a four parameter curve fitting program similar to “Allfit” (DeLean, A., Munson, P. J., Rodbard, D. (1980). Simultaneous analysis of families of sigmoidal curves: application to bioassay, radioligand assay, and physiological dose-response curves. Am. J. Physiol. 235, E97-102). Agonist potencies were indexed to PE and expressed as the negative logarithm (pD2). Each tissue was used for only one test agonist. For antagonists, the test agent was allowed a 30 minute exposure time before a second PE curve was started. The potency, expressed as a pA2, was calculated according to the method of Arunlakshana, O., Schild, H. O. (1959), Some quantitative uses of drug antagonists. […] The individual tissues were exposed to only one concentration of the test antagonist. The regression lines of the Schild plots were analyzed using least squares regression (Snedecor, G. W., Cochran, W. G., (1980). In Statistical methods, 7th edition, Iowa State University Press, Ames, Iowa).
# (§6) Male Sprague Dawley rats (350-450 g) were sedated with CO2 and decapitated. The entire thoracic aorta was removed and immediately placed into Krebs Ringer bicarbonate solution as described above. The aorta was cleaned of extraneous tissue and the endothelium removed by passing a 100 mm length of PE-160 tubing through the lumen. The aorta was cut into 3-4 mm rings and mounted in 10 ml isolated tissue baths at 37° C.
# [6] = target: T3, α1B adrenoceptor subtype (rat spleen); test: Rat spleen tissue bath, agonism; set-up: The spleen was split longitudinally into two preparations per rat; from tissue; host or cells: rat spleen
# Description: as §1, §2, §3
# [7] = target: T1, α1D adrenoceptor subtype (rat aorta); details: for type of antagonism at α1D: based on slope and regression (r) of Schild plot; for α1D r (regression of Schild plot) / α1D slope (Schild plot): rat aorta
# Description: as §4, §5, §6
# [8] = target: T4, α1A adrenoceptor (rat submaxillary gland) (Rattus norvegicus, UniProt P43140); test: Radioligand binding, α1A (rat submaxillary gland), [3H]-prazosin
# T4 construct: α1A (rat submaxillary gland); from tissue; host or cells: rat submaxillary gland
# T4 sequence (P43140 1-466): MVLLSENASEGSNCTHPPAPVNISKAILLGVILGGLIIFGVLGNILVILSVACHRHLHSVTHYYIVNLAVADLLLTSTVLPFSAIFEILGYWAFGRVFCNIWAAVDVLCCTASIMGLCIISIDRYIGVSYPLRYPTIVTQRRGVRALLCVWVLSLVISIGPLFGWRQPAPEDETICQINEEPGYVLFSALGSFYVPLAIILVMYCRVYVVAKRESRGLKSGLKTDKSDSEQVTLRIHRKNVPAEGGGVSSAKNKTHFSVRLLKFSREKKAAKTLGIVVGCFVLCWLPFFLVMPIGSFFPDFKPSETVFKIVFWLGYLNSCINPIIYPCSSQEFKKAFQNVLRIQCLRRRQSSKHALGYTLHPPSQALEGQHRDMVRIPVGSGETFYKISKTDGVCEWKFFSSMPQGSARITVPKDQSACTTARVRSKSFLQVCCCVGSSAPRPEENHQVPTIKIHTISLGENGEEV
# [9] = target: T5, α1b adrenoceptor (hamster receptor expressed in mouse fibroblasts) (Mesocricetus auratus, UniProt P18841); test: Radioligand binding, α1b (hamster receptor expressed in mouse fibroblasts), [3H]-prazosin
# T5 construct: expressed in transfected cells; host or cells: mouse fibroblasts
# T5 sequence (P18841 1-515): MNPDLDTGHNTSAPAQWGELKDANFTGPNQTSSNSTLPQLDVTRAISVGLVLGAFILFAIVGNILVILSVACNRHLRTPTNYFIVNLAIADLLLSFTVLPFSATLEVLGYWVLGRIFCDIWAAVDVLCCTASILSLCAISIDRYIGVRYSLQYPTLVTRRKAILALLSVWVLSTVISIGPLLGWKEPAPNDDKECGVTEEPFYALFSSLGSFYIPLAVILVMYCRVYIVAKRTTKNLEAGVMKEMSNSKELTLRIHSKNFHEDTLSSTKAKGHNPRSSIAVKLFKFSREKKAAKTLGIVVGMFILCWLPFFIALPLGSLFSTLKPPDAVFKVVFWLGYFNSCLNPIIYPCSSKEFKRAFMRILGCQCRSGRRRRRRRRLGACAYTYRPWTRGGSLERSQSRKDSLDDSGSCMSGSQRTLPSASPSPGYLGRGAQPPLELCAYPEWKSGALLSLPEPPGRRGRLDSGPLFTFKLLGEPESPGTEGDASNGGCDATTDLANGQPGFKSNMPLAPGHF
# [10] = target: T6, α1d adrenoceptor (rat receptor expressed in mouse fibroblasts) (Rattus norvegicus, UniProt P23944); test: Radioligand binding, α1d (rat receptor expressed in mouse fibroblasts), [3H]-prazosin
# T6 construct: expressed in transfected cells; host or cells: mouse fibroblasts
# T6 sequence (P23944 1-561): T1 sequence (P23944 1-561)
# [11] = i.v., anesthetized female Beagle dogs, mean ± S.E.M.
# [12] = i.v., anesthetized female Beagle dogs, dose producing 20 mmHg increase in MAP, mean ± S.E.M.
Structure (SMILES),α1D efficacy [1] [%],"IUP ED5 mmHg [2, 11] [nmol/kg]",α1A efficacy [3] [%],Kb [4] [µM],type of antagonism at α1B [4],α1B r (regression of Schild plot) [4],α1B slope (Schild plot) [4],α1D pD2 ([1]; agonist potency),Kb [5] [µM],Selectivity ratio MAP ED20/IUP ED5 [2],"MAP ED20 mmHg [2, 12] [nmol/kg]",α1B pD2 ([6]; agonist potency),type of antagonism at α1D [7],α1D r (regression of Schild plot) [7],α1D slope (Schild plot) [7],further results
"CS(=O)(=O)Nc1c(O)ccc2c1CCCC2C1=NCCN1 (centres unmarked) [Compound A-61603, reference compound]",100,0.16 ± 0.02,88,,,,,,,,,,,,,"MAP ED20 mmHg ([2]; female, Beagle, dog, in vivo, iv): 0.27 ± 0.05 nmol/kg"
CCS(=O)(=O)Nc1cccc(Cc2c[nH]cn2)c1C [Compound A-286569],,41.9 ± 6.2,69,15.8,non-competitive antagonist,0.6,1.3,inactive,6.31,5.6,201.6 ± 67,inactive,non-competitive antagonist,0.5,1.1,
CCS(=O)(=O)Nc1cccc(Cc2c[nH]cn2)c1 [Compound A-286666],,,80,1.58,competitive antagonist,0.9,0.81,inactive,0.316,,,inactive,competitive antagonist,0.9,0.93,
"C[C@@H](N)[C@H](O)c1ccccc1 [PPA, phenylpropanolamine]",91,1092 ± 384,68,,,,,,,0.4,331 ± 80,,,,,"EC50 ([1]; agonist potency, read-out: α1D pD2 (converted)): 63.1 µM; Ki [8]: > 10 µM; Ki [9]: > 10 µM; EC50 ([6]; agonist potency, read-out: α1B pD2 (converted)): 251 µM; α1B efficacy ([6]; percent of phenylephrine (100%) contraction): 34%; EC50 ([3]; agonist potency, negative log of EC50, read-out: α1A pD2 (converted)): 200 µM; Ki [10]: > 10 µM"
